The text below walks through data of publication PMC6271529, “Studies on the Anticonvulsant Activity and Influence on GABA-ergic Neurotransmission of 1,2,4-Triazole-3-thione-Based Compounds” (Molecules, 2014).

In series [1] the test system is benzodiazepine (BDZ)-binding sites. In words: Radioligand binding assay, [3H]flunitrazepam, rat cerebral cortex.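 Also: low percentages indicate weak binding of the compound to the site.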 To be noted: compound 1 × 10^−6 M. The protocol:
Binding experiments were conducted in 96-well microplates in a total volume of 200 μL of appropriate buffer. The reaction mixture included 50 μL solution of test compound, 50 μL of radioligand, and […] the tissue suspension. Rat cerebral cortex was used for each receptor. The radioactivity was measured in MicroBeta TriLux 1450-liquid scintillation counter (PerkinElmer, Waltham, MA, USA). Radioligand binding data were analyzed using iterative curve fitting routines (GraphPAD/Prism, Version 3.0, San Diego, CA, USA). Ki values were calculated from the Cheng and Prusoff equation [36].

Series [2] relates to GABAA receptors. As to the kind of experiment: Radioligand binding assay, [3H]muscimol, rat cerebral cortex.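 Also: low percentages indicate weak binding of the compound to the receptor.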 As to conditions: compound 1 × 10^−6 M, [3H]muscimol, rat cerebral cortex. The protocol: Binding experiments were conducted in 96-well microplates in a total volume of 200 μL of appropriate buffer. The reaction mixture included 50 μL solution of test compound, 50 μL of radioligand, and […] the tissue suspension. Rat cerebral cortex was used for each receptor. […] Radioligand binding data were analyzed using iterative curve fitting routines (GraphPAD/Prism, Version 3.0, San Diego, CA, USA). Ki values were calculated from the Cheng and Prusoff equation [36].

The subject of series [3] is maximal electroshock-induced seizures. As to the kind of experiment: Maximal electroshock-induced seizure (MES) test in mice. It is filed as in vivo, mouse. To be noted: for p/t, number of animals protected against MES-induced seizures / number tested / responders at 300 mg/kg: 300 mg/kg i.p.; for responders at 300 mg/kg / ED50: Mus musculus, ip; for responders at 300 mg/kg: read-out: percent of animals protected against MES-induced seizures; for ED50: read-out: ED50 ± S.E. (MES test); for PI (TD50/ED50): protective index; for onset of action: significant protection as early as 15 min after parenteral administration. The protocol:
Additionally, all efforts were made to minimize animal suffering and to use only the number of animals necessary to produce reliable scientific data.
In the initial stage of the study, groups of eight mice were supplied with the compounds (administered intraperitoneally) in a dose of 300 mg/kg and then exposed to electrical impulse at fixed intervals (15, 30, 60, 120 min).
Each mouse was used only once.
Fresh drug solutions were prepared on each day of experimentation and administered at 15, 30, 60 and 120 min. before the initiation of maximal electroconvulsions. Electroconvulsions were produced by a current (0.2 s stimulus duration; 500 V, 50 Hz, fixed current intensity of 25 mA) delivered via ear-clip electrodes by a Rodent Shocker generator (constant-current stimulator Type 221, Hugo Sachs Elektronik, Freiburg, Germany). The criterion for the occurrence of seizure activity was the tonic hind limb extension. The animals were administered with a constant dose of 300 mg/kg of each of the examined compounds and were subjected to MES-induced seizures. […] The animals were administered with different doses of the tested compounds so as to obtain a variable percentage of protection against maximal electroconvulsions, allowing the construction of dose-response relationship lines for each examined compound administered i.p. at various pretreatment times, according to Litchfield and Wilcoxon. Each ED50 value represents the dose of the studied compounds that is required to protect 50% of the animals tested against MES-induced seizures.

The mark [4] stands for this setting: pretreatment time 120 min, mice.
Setting [5] is: 0.25 h, pretreatment time 15 min, mice.
The mark [6] stands for this setting: 0.5 h, pretreatment time 30 min, mice.
The mark [7] stands for this setting: 1 h, pretreatment time 60 min, mice.
Setting [8] is: 2 h, pretreatment time 120 min, mice.
Setting [9] is: chimney TD50 / MES ED50, pretreatment time 15 min.
Where [10] appears, read: chimney TD50 / MES ED50, pretreatment time 30 min.
The mark [11] stands for this setting: chimney TD50 / MES ED50, pretreatment time 60 min.
The mark [12] stands for this setting: chimney TD50 / MES ED50, pretreatment time 120 min.

Structures are written as SMILES. “Also recorded” adds a separate entry of the source. Like-named read-outs stand apart in the source and are kept apart here.

`Fc1ccccc1-n1c(-c2cccc(Cl)c2)n[nH]c1=S` [Compound 1a, 5-(3-Chlorophenyl)-4-(2-fluorophenyl)-2,4-dihydro-3H-1,2,4-triazole-3-thione]: the melting point fell in the range of 170 to 171 °C. Besides, the “Percent of Specific Binding, BDZ” value in series [1] amounted to 14%. In addition, the “Percent of Specific Binding, GABAA” value in series [2] was 8%. Further, the “p/t, number of animals protected against MES-induced seizures / number tested” value in series [3] (pretreatment time 15 min, mice) is 0/8. Besides, in series [3] (pretreatment time 30 min, mice), the “p/t, number of animals protected against MES-induced seizures / number tested” value is reported as 0/8. In addition, the “p/t, number of animals protected against MES-induced seizures / number tested” value in series [3] (pretreatment time 60 min, mice) is reported as 1/8. For the same compound, in series [3] (setting [4]), the “p/t, number of animals protected against MES-induced seizures / number tested” value is 1/8. Also, the responders at 300 mg/kg in series [3] (setting [5]) turned out to be 0%. Further, the responders at 300 mg/kg in series [3] (setting [6]) was found to be 0%. Besides, the responders at 300 mg/kg in series [3] (setting [7]) stood at 12.5%. Also, the responders at 300 mg/kg in series [3] (setting [8]) was 12.5%.
For `S=c1[nH]nc(-c2cccc(Cl)c2)n1-c1ccccc1Br` [Compound 5a, 4-(2-Bromophenyl)-5-(3-chlorophenyl)-2,4-dihydro-3H-1,2,4-triazole-3-thione], in series [1], the “Percent of Specific Binding, BDZ” value was 12%. Further, the “Percent of Specific Binding, GABAA” value in series [2] is 2%. Also, the “p/t, number of animals protected against MES-induced seizures / number tested” value in series [3] (pretreatment time 15 min, mice) was 0/8; in series [3] (pretreatment time 30 min, mice) it was 0/8; in series [3] (pretreatment time 60 min, mice), 1/8; in series [3] (setting [4]), 1/8. The responders at 300 mg/kg is 0% in series [3] (setting [5]), 0% in series [3] (setting [6]), 12.5% in series [3] (setting [7]) and 12.5% in series [3] (setting [8]).
With `S=c1[nH]nc(-c2ccc(Cl)cc2)n1-c1ccc(Br)cc1` [Compound 16a, 4-(4-Bromophenyl)-5-(4-chlorophenyl)-2,4-dihydro-3H-1,2,4-triazole-3-thione], the “Percent of Specific Binding, BDZ” value in series [1] amounted to 24%. Besides, the “Percent of Specific Binding, GABAA” value in series [2] is recorded as 17%. Also, the “p/t, number of animals protected against MES-induced seizures / number tested” value in series [3] (pretreatment time 15 min, mice) is 5/8; in series [3] (pretreatment time 30 min, mice) it was 7/8; in series [3] (pretreatment time 60 min, mice), 8/8; in series [3] (setting [4]), 8/8. Moreover, the responders at 300 mg/kg came to 62.5% in series [3] (setting [5]), 87.5% in series [3] (setting [6]), 100% in series [3] (setting [7]) and 100% in series [3] (setting [8]). For the same compound, the ED50 came to 272 ± 21.4 mg/kg in series [3] (pretreatment time 15 min, mice); 182 ± 44.3 mg/kg in series [3] (pretreatment time 30 min, mice); 153 ± 23.5 mg/kg in series [3] (pretreatment time 60 min, mice); 141 ± 25.1 mg/kg in series [3] (setting [4]). Besides, in series [3] (after i.p. administration, MES, mice), the “time to peak of the anticonvulsant action” value was found to be 120 min. Also, the “PI (TD50/ED50)” value was 1.6 in series [3] (setting [9]), 2.6 in series [3] (setting [10]), 3.0 in series [3] (setting [11]) and 2.9 in series [3] (setting [12]). In addition, the onset of action result in series [3] (MES, mice) is listed as “quick onset of action”.
Regarding `Cc1ccc(-n2c(-c3cccc(Cl)c3)nn(CN3CCOCC3)c2=S)cc1` [Compound 22a, 5-(3-Chlorophenyl)-4-(4-methylphenyl)-2-(morpholin-4-ylmethyl)-2,4-dihydro-3H-1,2,4-triazole-3-thione], the “Percent of Specific Binding, BDZ” value in series [1] came out at 12%. Further, the “Percent of Specific Binding, GABAA” value in series [2] came out at 6%. Also, the “p/t, number of animals protected against MES-induced seizures / number tested” value is 4/8 in series [3] (pretreatment time 15 min, mice); 5/8 in series [3] (pretreatment time 30 min, mice); 3/8 in series [3] (pretreatment time 60 min, mice); 2/8 in series [3] (setting [4]). Further, the “anticonvulsant activity (in words)” value in series [3] (MES test, mice) is “slightly weaker than that of valproate; also recorded: weak anticonvulsant activity”. In addition, the responders at 300 mg/kg worked out at 50% in series [3] (setting [5]), 62.5% in series [3] (setting [6]), 37.5% in series [3] (setting [7]) and 25% in series [3] (setting [8]). Also, the ED50 in series [3] (pretreatment time 15 min, mice) stood at 224 ± 20.9 mg/kg; in series [3] (pretreatment time 30 min, mice), 228 ± 14.7 mg/kg; in series [3] (pretreatment time 60 min, mice), 274 ± 10.9 mg/kg; in series [3] (setting [4]) it was 448 ± 21.4 mg/kg. For the same compound, the “PI (TD50/ED50)” value in series [3] (setting [9]) was 1.5; in series [3] (setting [10]) it was 1.4; in series [3] (setting [11]) it was 1.6; in series [3] (setting [12]), 1.0. The onset of action entry in series [3] (MES, mice) was “quick onset of action”.
Take `Cc1ccc(-n2c(-c3cccc(Cl)c3)nn(CN3CCN(c4ccccc4)CC3)c2=S)cc1` [Compound 23a, 5-(3-Chlorophenyl)-4-(4-methylphenyl)-2-[(4-phenylpiperazin-1-yl)methyl]-2,4-dihydro-3H-1,2,4-triazole-3-thione]: the “Percent of Specific Binding, BDZ” value in series [1] is listed as 7%. Moreover, in series [2], the “Percent of Specific Binding, GABAA” value is given as 23%. In addition, the “p/t, number of animals protected against MES-induced seizures / number tested” value in series [3] (pretreatment time 15 min, mice) is 0/8; in series [3] (pretreatment time 30 min, mice), 0/8; in series [3] (pretreatment time 60 min, mice) it was 0/8; in series [3] (setting [4]), 0/8. Also, the responders at 300 mg/kg in series [3] (setting [5]), in series [3] (setting [6]), in series [3] (setting [7]) and in series [3] (setting [8]) was 0% each time.
As for `Cc1ccc(-n2c(-c3cccc(Cl)c3)nn(CN3CCN(c4ccc(F)cc4)CC3)c2=S)cc1` [Compound 24a, 5-(3-Chlorophenyl)-2-{[4-(4-fluorophenyl)piperazin-1-yl]methyl}-4-(4-methylphenyl)-2,4-dihydro-3H-1,2,4-triazole-3-thione], in series [1], the “Percent of Specific Binding, BDZ” value was 13%. Further, the “Percent of Specific Binding, GABAA” value in series [2] is on record as 21%. In addition, the “p/t, number of animals protected against MES-induced seizures / number tested” value in series [3] (pretreatment time 15 min, mice) is recorded as 0/8; in series [3] (pretreatment time 30 min, mice), 0/8; in series [3] (pretreatment time 60 min, mice), 0/8; in series [3] (setting [4]) it was 0/8. Further, the responders at 300 mg/kg in series [3] (setting [5]), in series [3] (setting [6]), in series [3] (setting [7]) and in series [3] (setting [8]) was 0% in each case.
`CN1C(=O)CN=C(c2ccccc2)c2cc(Cl)ccc21` [Diazepam, reference compound]: the “Percent of Specific Binding, BDZ” value in series [1] was 83%.
The same measure, in the same setting: the same measure for `Cc1ccc(-c2nc3ccc(C)cn3c2CC(=O)N(C)C)cc1` [Zolpidem, reference compound]: 73%.
